Laboratory results from patent US5053402A, “Certain glyceryl phosphate-cyclic ammonium compounds useful for treating hypertension” (Nippon Chemiphar Co., Ltd., priority 1986, dated 1991).

Key:
platelet = assay: Blood Platelet Agglutination Action; type: cell-based, male Japanese white rabbit; conditions: Oryctolagus cuniculus; for EC50: from agglutination curve
Description: A male Japanese white rabbit was anesthetized by pentobarbital, and a blood was collected in aqueous 3.13% sodium citrate solution at its carotid. The blood containing 1/10 volume ratio of the sodium citrate solution was treated in a conventional manner to give a platelet rich plasma (PRP) and a platelet poor plasma (PPP) for performing the following experiment.
PRP was diluted with PPP to give a sample containing platelets at 300,000/mm^3.
Agglutination of platelet was determined by means of Platelet Aggregation Tracer PAT-4A(available from Niko Bioscience Co., Ltd., Japan). 10 μl of a test solution was added to 190 μl of PRP to give a final solution of 2×10^-10 to 2×10^-4 M, and an agglutination curve is recorded. For the preparation of the test solution, a saline solution containing 0.25% bovine serum albumin.
Agglutination of Platelet

blood pressure [1] = assay: Blood Pressure Reducing Action: Intravenous Injection; type: in vivo, Male Wister rats; conditions: anesthetized rat; for ED (50 mmHg reduction): iv, from dose-response curve, read-out: MABP50 (dose required for reducing average blood pressure by 50 mmHg); for Reduction of Blood Pressure: i.v.
Description: Male Wister rats (mean body weight: 420 g) were anesthetized by intra-peritoneal injection of 50 mg/kg of pentobarbital sodium and were fixed on their backs, and their blood pressures were measured at left femoral artery. Subsequently, a compound to be tested was dissolved in a saline solution containing 0.25% bovine serum albumin and injected into the rat through the right femoral vein.
A dose-response curve was prepared from the above values to determine a dose required for reducing average blood pressure by 50 mmHg (MABP50). MABP50 for the above compound was 21 ng/kg.

blood pressure [2] = assay: Blood Pressure Decreasing Action: Oral Administration; type: in vivo, Spontaneously hypertensive male rats; conditions: 10 mg/kg
Description: Spontaneously hypertensive male rates (average body weight: 359 g) were etherized and fixed on their backs. Blood pressure was measured for each rat through cannulation at its left femoral artery. A compound to be tested was dissolved in a distilled water and the resulting aqueous solution was administered orally.

Compound | EC50 (platelet; table) [nM] | ED (50 mmHg reduction) (blood pressure [1]) [µg/kg] | Reduction of Blood Pressure (blood pressure [2]; after 30 min) | Reduction of Blood Pressure (blood pressure [2]; after 1 hr) [mmHg] | Reduction of Blood Pressure (blood pressure [2]; after 2 hrs) [mmHg] | Reduction of Blood Pressure (blood pressure [2]; after 3 hrs) [mmHg] | Reduction of Blood Pressure (blood pressure [2]; after 4 hrs) [mmHg] | Reduction of Blood Pressure (blood pressure [2]; after 5 hrs) [mmHg] | Reduction of Blood Pressure (blood pressure [2]; after 6 hrs) [mmHg] | also measured
CCCCCCCCCCCCCCCCOCC(COP(=O)([O-])OC1CCC[N+](C)(C)C1)OC(C)=O (stereo not drawn) [Example 1, 2-Acetyloxy-3-hexadecyloxypropyl 1,1-dimethylpiperidinio-3-yl phosphate] | 0.6 | 0.013 | – | – | – | – | – | – | – | –
CCCCCCCCCCCCCCCCOCC(COP(=O)([O-])OC1CC[N+](C)(C)CC1)OC(C)=O (stereo not drawn) [Example 2, 2-Acetyloxy-3-hexadecyloxypropyl 1,1-dimethylpiperidinio-4-yl phosphate] | 8 | 0.058 | – | – | – | – | – | – | – | –
CCCCCCCCCCCCCCCCOC(C)C(COP(=O)([O-])OC1CC[N+](C)(C)C1)OC(C)=O (stereo not drawn) [Example 3, 2-Acetyloxy-3-hexadecyloxybutyl 1,1-dimethylpyrrolidinio-3-yl phosphate] | 400 | 8.5 | -49.7 mmHg | -60.7 | -74.3 | -82.0 | -84.7 | -83.7 | -82.3 | –
CCCCCCCCCCCCCCCCOC(C)C(COP(=O)([O-])OC1CCC[N+](C)(C)C1)OC(C)=O (stereo not drawn) [Example 4, 2-Acetyloxy-3-hexadecyloxybutyl 1,1-dimethylpiperidinio-3-yl phosphate] | 22 | 0.34 | -66.0 mmHg | -68.0 | -73.0 | -72.3 | -66.7 | -63.0 | -66.7 | –
CCCCCCCCCCCCCCCCOC(C)C(COP(=O)([O-])OC1CC[N+](C)(C)CC1)OC(C)=O (stereo not drawn) [Example 5, 2-Acetyloxy-3-hexadecyloxybutyl 1,1-dimethylpiperidinio-4-yl phosphate] | 630 | 8.6 | +5.0 mmHg | 0 | -14.5 | -19.0 | -22.5 | -26.0 | -28.0 | –
CCCCCCCCCCCCCCCCOCC(OC(C)=O)C(OP(=O)([O-])OC1CC[N+](C)(C)C1)C(C)C (stereo not drawn) [Example 6, 2-Acetyloxy-3-hexadecyloxy-1-(1-methylethyl)-propyl 1,1-dimethylpyrrolidinio-3-yl phosphate] | 5000 | 48 | – | – | – | – | – | – | – | –
CCCCCCCCCCCCCCCCOCC(COP(=O)([O-])OC1CC[N+](C)(C)C1)OC(C)=O (stereo not drawn) [Example 8, 2-Acetyloxy-3-hexadecyloxypropyl 1,1-dimethylpyrrolidinio-3-yl phosphate] | – | 0.021 | – | – | – | – | – | – | – | activation at 2 µM (platelet; 2 × 10^-6 M, PRP = 0%, PPP = 100%): 86%; activation at 0.2 µM (platelet; 2 × 10^-7 M, PRP = 0%, PPP = 100%): 81%; activation at 0.02 µM (platelet; 2 × 10^-8 M, PRP = 0%, PPP = 100%): 67%; activation at 0.002 µM (platelet; 2 × 10^-9 M, PRP = 0%, PPP = 100%): 18%; activation at 0.0002 µM (platelet; 2 × 10^-10 M, PRP = 0%, PPP = 100%): 0%; EC50 (platelet): 18 nM; Reduction of Blood Pressure (blood pressure [1]; 1 ng/kg): -4.5 ± 1.5 mmHg; Reduction of Blood Pressure (blood pressure [1]; 5 ng/kg): -21.5 ± 8.0 mmHg; Reduction of Blood Pressure (blood pressure [1]; 10 ng/kg): -47.5 ± 0.5 mmHg; Reduction of Blood Pressure (blood pressure [1]; 50 ng/kg): -52.6 ± 4.6 mmHg; Reduction of Blood Pressure (blood pressure [1]; 100 ng/kg): -67.0 ± 3.1 mmHg
